Measurements as given in the CheMixHub drug solubility set.

Test: xn = mol fraction of the nth substance listed, in the solute-free solvent

CC(=O)N1CCN(c2ccc(OCC3COC(Cn4ccnc4)(c4ccc(Cl)cc4Cl)O3)cc2)CC1 (stereo not given) + C1COCCO1 + O
solubility (g/100 g solution)
Settings | x2 = 0.02222 | x2 = 0.04865 | x2 = 0.0806 | x2 = 0.12 | x2 = 0.1698 | x2 = 0.2348 | x2 = 0.3231 | x2 = 0.45 | x2 = 0.648
293.15 K | 0.00759 | 0.0327 | 0.155 | 0.537 | 2.07 | 6.72 | 16.6 | 22.9 | 18.7
298.15 K | 0.00818 | 0.0386 | 0.171 | 0.692 | 2.58 | 8.67 | 18.8 | 25.4 | 20.6
303.15 K | 0.00845 | 0.0485 | 0.197 | 0.87 | 3.25 | 10.9 | 21.1 | 27.8 | 22.6
308.15 K | 0.00894 | 0.0594 | 0.216 | 1.04 | 4.24 | 13.4 | 24.4 | 29.9 | 24.3
313.15 K | 0.00948 | 0.07 | 0.25 | 1.3 | 5.11 | 16 | 27.2 | 32.5 | 26.7

O=C(O)CC(O)C(=O)O (stereo not given) + CC#N + CCCCOC(C)=O
solubility (g/100 g solution)
Settings | 278.15 K | 283.15 K | 288.15 K | 293.15 K | 298.15 K | 303.15 K | 308.15 K | 313.15 K | 318.15 K | 323.15 K
x2 = 0.4143 | 1.23 | 1.39 | 1.63 | 1.79 | 2.06 | 2.36 | 2.73 | 3.15 | 3.71 | 4.37
x2 = 0.5481 | 1.54 | 1.77 | 2.1 | 2.45 | 2.86 | 3.39 | 3.96 | 4.62 | 5.41 | 6.44
x2 = 0.6535 | 2.05 | 2.38 | 2.8 | 3.32 | 3.93 | 4.61 | 5.48 | 6.51 | 7.78 | 9.24
x2 = 0.7389 | 2.71 | 3.15 | 3.56 | 4.05 | 4.88 | 5.66 | 6.77 | 7.85 | 9.29 | 11.2
x2 = 0.8093 | 3.25 | 3.73 | 4.29 | 4.93 | 5.81 | 6.58 | 7.95 | 9.34 | 10.9 | 13.2
x2 = 0.8685 | 3.84 | 4.31 | 4.89 | 5.73 | 6.8 | 8.05 | 9.49 | 11.3 | 13.5 | 15.8
x2 = 0.9188 | 4.19 | 4.92 | 5.74 | 6.72 | 8.05 | 9.62 | 11.4 | 13.7 | 16.4 | 19.4

CC(=O)N1CCN(c2ccc(OCC3COC(Cn4ccnc4)(c4ccc(Cl)cc4Cl)O3)cc2)CC1 (stereo not given) + CC#N + O
solubility (g/100 g solution)
Settings | x2 = 0.04651 | x2 = 0.0989 | x2 = 0.1583 | x2 = 0.2264 | x2 = 0.3051 | x2 = 0.397 | x2 = 0.506 | x2 = 0.6372 | x2 = 0.798
293.15 K | 0.0181 | 0.108 | 0.587 | 2.22 | 5.12 | 9.21 | 11.9 | 10 | 4.67
298.15 K | 0.0214 | 0.122 | 0.681 | 2.63 | 6.07 | 10.5 | 13 | 11.2 | 5.65
303.15 K | 0.024 | 0.137 | 0.794 | 2.95 | 6.89 | 11.7 | 14.2 | 12.5 | 6.84
308.15 K | 0.0263 | 0.157 | 0.888 | 3.36 | 7.88 | 12.9 | 15.4 | 13.6 | 7.71
313.15 K | 0.0283 | 0.177 | 0.992 | 3.72 | 8.81 | 13.8 | 16.5 | 14.9 | 8.58
